Data taken from article PMC12207370, “Macrocyclic Peptide Probes for Immunomodulatory Protein CD59: Potent Modulators of Bacterial Toxin Activity and Antibody‐Dependent Cytotoxicity” (Angewandte Chemie (International Ed. in English), 2025).
Like-named read-outs stand apart in the source and are kept apart here. Peptide text beside a SMILES is read from it.

Target: T1, CD59 (Homo sapiens, UniProt P13987)
T1 construct: Recombinant soluble human CD59 with an additional C-terminal cysteine residue
T1 sequence (P13987 26-102 limits assumed): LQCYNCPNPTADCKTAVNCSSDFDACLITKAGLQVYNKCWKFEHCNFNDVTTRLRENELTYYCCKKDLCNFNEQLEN
Assay: SPR (Biacore S200) binding to immobilised biotinylated CD59
Text: To identify which of these peptides bound CD59 most tightly, we used a Biacore S200 surface plasmon resonance (SPR) platform to investigate CD59 affinity (Figure 2b), using a known protein binding partner of CD59 (rILYd4) as a benchmark. Four 13‐mer macrocyclic peptides and one 14‐mer macrocyclic peptide were identified with a dissociation constant (K D) lower than that of rILYd4. Considering their fourfold lower molecular weight, these peptides bind with up to 19‐fold greater efficiency compared to rILYd4 (Figure 2b).
Equipment: SPR analysis was performed on a Cytiva Biacore S200. All buffers were prepared using ultra-pure water from a Millipore Elix Q-Gard purification system. Solutions and buffers were filtered with a 0.22 μm filter and degassed prior to use. The assays were performed on Series S streptavidin (SA) sensor chip (Cytiva). PBS-P+ buffer 10X (0.2 M phosphate buffer with 27 mM KCl, 1.37 M NaCl and 0.5% Surfactant P20 (Tween 20)) was used for the preparation of the assay running buffer (PBS-P+ 1X).
Immobilisation of CD59-biotin: Biotinylated CD59 was immobilised on the surface of a SA chip by non-covalent capture (biotin streptavidin interaction) as per the manufacturer’s instructions. The system was initially primed with running buffer and normalised using BIAnormalizing solution (70% (w/w) glycerol) (Cytiva). Before immobilising the protein, the surface was conditioned with three consecutive one-minute injections of 1 M NaCl in 50 mM NaOH. Biotinylated CD59 (0.5 µg/mL in running buffer) was flowed over the protein (active) channel for different contact times to achieve different immobilisation levels (600–1200 RU). After each protein injection, the needle and injection loop were washed using 50% isopropanol in 1 M NaCl and 50 mM NaOH. A reference channel was prepared by similar treatment; however, running buffer alone rather than CD59-biotin in running buffer was flowed over the chip the same way.
Interaction analysis: Multicycle kinetic and affinity approach was used for the analysis of peptides interactions with CD59. Two-fold serial dilutions of each peptide were prepared in running buffer and were flowed over both the ligand and reference channel using a flow rate (30 μL/min) at 25 °C. A zero concentration was added to each analyte series and three cycles of buffer were run between analytes to restore the baseline. The obtained sensorgrams were analysed using the embedded Biacore S200 Evaluation software. The data were normalised by subtracting RU values of the reference channel and zero concentration of the analyte series. Kinetic rate constants (kon and koff) were determined by fitting the normalised data using the built-in Kinetic analysis model (non-linear regression with a 1:1 Langmuir binding model), KD values were then calculated from the two rate constants ([…]). The KD values were determined again by fitting the normalised data using the built-in Affinity analysis model (1:1 Langmuir binding model).

[1] = Ala scan of CP-06, SPR, n = 1, read-out: KD
[2] = Ala scan of CP-06, SPR, n = 1, read-out: PKD (converted)

Row | SMILES | Kd [1] | also measured
1 | CC(C)[C@@H]1NC(=O)[C@H](CO)NC(=O)[C@H](CO)NC(=O)[C@H](C)NC(=O)[C@H](CC(N)=O)NC(=O)CNC(=O)[C@H](Cc2c[nH]c3ccccc23)NC(=O)[C@H]([C@@H](C)O)NC(=O)[C@H](Cc2c[nH]c3ccccc23)NC(=O)[C@H](CO)NC(=O)[C@@H](Cc2ccc(O)cc2)NC(=O)CSC[C@@H](C(N)=O)NC(=O)CNC(=O)[C@H](CCCNC(=N)N)NC1=O [CP-06-R8A] (HELM PEPTIDE1{[O=C(C[*:3])[*:2]].[dY].S.W.T.W.G.N.A.S.S.V.R.G.C.[am]}$PEPTIDE1,PEPTIDE1,1:R3-15:R3$$$V2.0) | 18 nM | –
2 | CC(C)[C@@H]1NC(=O)[C@H](CO)NC(=O)[C@H](CO)NC(=O)[C@H](CCCNC(=N)N)NC(=O)[C@H](CC(N)=O)NC(=O)CNC(=O)[C@H](Cc2c[nH]c3ccccc23)NC(=O)[C@H]([C@@H](C)O)NC(=O)[C@H](Cc2c[nH]c3ccccc23)NC(=O)[C@H](CO)NC(=O)[C@@H](Cc2ccc(O)cc2)NC(=O)CSC[C@@H](C(N)=O)NC(=O)CNC(=O)[C@H](C)NC1=O [CP-06-R12A] (HELM PEPTIDE1{[O=C(C[*:3])[*:2]].[dY].S.W.T.W.G.N.R.S.S.V.A.G.C.[am]}$PEPTIDE1,PEPTIDE1,1:R3-15:R3$$$V2.0) | 97 nM | –
3 | CC(C)[C@@H]1NC(=O)[C@H](CO)NC(=O)[C@H](CO)NC(=O)[C@H](CCCNC(=N)N)NC(=O)[C@H](CC(N)=O)NC(=O)CNC(=O)[C@H](Cc2c[nH]c3ccccc23)NC(=O)[C@H]([C@@H](C)O)NC(=O)[C@H](Cc2c[nH]c3ccccc23)NC(=O)[C@H](C)NC(=O)[C@@H](Cc2ccc(O)cc2)NC(=O)CSC[C@@H](C(N)=O)NC(=O)CNC(=O)[C@H](CCCNC(=N)N)NC1=O [CP-06-S2A] (HELM PEPTIDE1{[O=C(C[*:3])[*:2]].[dY].A.W.T.W.G.N.R.S.S.V.R.G.C.[am]}$PEPTIDE1,PEPTIDE1,1:R3-15:R3$$$V2.0) | 13 nM | –
4 | CC(C)[C@@H]1NC(=O)[C@H](CO)NC(=O)[C@H](C)NC(=O)[C@H](CCCNC(=N)N)NC(=O)[C@H](CC(N)=O)NC(=O)CNC(=O)[C@H](Cc2c[nH]c3ccccc23)NC(=O)[C@H]([C@@H](C)O)NC(=O)[C@H](Cc2c[nH]c3ccccc23)NC(=O)[C@H](CO)NC(=O)[C@@H](Cc2ccc(O)cc2)NC(=O)CSC[C@@H](C(N)=O)NC(=O)CNC(=O)[C@H](CCCNC(=N)N)NC1=O [CP-06-S9A] (HELM PEPTIDE1{[O=C(C[*:3])[*:2]].[dY].S.W.T.W.G.N.R.A.S.V.R.G.C.[am]}$PEPTIDE1,PEPTIDE1,1:R3-15:R3$$$V2.0) | 22 nM | –
5 | CC(C)[C@@H]1NC(=O)[C@H](C)NC(=O)[C@H](CO)NC(=O)[C@H](CCCNC(=N)N)NC(=O)[C@H](CC(N)=O)NC(=O)CNC(=O)[C@H](Cc2c[nH]c3ccccc23)NC(=O)[C@H]([C@@H](C)O)NC(=O)[C@H](Cc2c[nH]c3ccccc23)NC(=O)[C@H](CO)NC(=O)[C@@H](Cc2ccc(O)cc2)NC(=O)CSC[C@@H](C(N)=O)NC(=O)CNC(=O)[C@H](CCCNC(=N)N)NC1=O [CP-06-S10A] (HELM PEPTIDE1{[O=C(C[*:3])[*:2]].[dY].S.W.T.W.G.N.R.S.A.V.R.G.C.[am]}$PEPTIDE1,PEPTIDE1,1:R3-15:R3$$$V2.0) | 12 nM | –
6 | CC(C)[C@@H]1NC(=O)[C@H](CO)NC(=O)[C@H](CO)NC(=O)[C@H](CCCNC(=N)N)NC(=O)[C@H](CC(N)=O)NC(=O)CNC(=O)[C@H](Cc2c[nH]c3ccccc23)NC(=O)[C@H](C)NC(=O)[C@H](Cc2c[nH]c3ccccc23)NC(=O)[C@H](CO)NC(=O)[C@@H](Cc2ccc(O)cc2)NC(=O)CSC[C@@H](C(N)=O)NC(=O)CNC(=O)[C@H](CCCNC(=N)N)NC1=O [CP-06-T4A] (HELM PEPTIDE1{[O=C(C[*:3])[*:2]].[dY].S.W.A.W.G.N.R.S.S.V.R.G.C.[am]}$PEPTIDE1,PEPTIDE1,1:R3-15:R3$$$V2.0) | 18 nM | –
7 | C[C@@H]1NC(=O)[C@H](CO)NC(=O)[C@H](CO)NC(=O)[C@H](CCCNC(=N)N)NC(=O)[C@H](CC(N)=O)NC(=O)CNC(=O)[C@H](Cc2c[nH]c3ccccc23)NC(=O)[C@H]([C@@H](C)O)NC(=O)[C@H](Cc2c[nH]c3ccccc23)NC(=O)[C@H](CO)NC(=O)[C@@H](Cc2ccc(O)cc2)NC(=O)CSC[C@@H](C(N)=O)NC(=O)CNC(=O)[C@H](CCCNC(=N)N)NC1=O [CP-06-V11A] (HELM PEPTIDE1{[O=C(C[*:3])[*:2]].[dY].S.W.T.W.G.N.R.S.S.A.R.G.C.[am]}$PEPTIDE1,PEPTIDE1,1:R3-15:R3$$$V2.0) | – | Kd [2]: 30.2 nM
8 | CC(C)[C@@H]1NC(=O)[C@H](CO)NC(=O)[C@H](CO)NC(=O)[C@H](CCCNC(=N)N)NC(=O)[C@H](CC(N)=O)NC(=O)CNC(=O)[C@H](Cc2c[nH]c3ccccc23)NC(=O)[C@H]([C@@H](C)O)NC(=O)[C@H](C)NC(=O)[C@H](CO)NC(=O)[C@@H](Cc2ccc(O)cc2)NC(=O)CSC[C@@H](C(N)=O)NC(=O)CNC(=O)[C@H](CCCNC(=N)N)NC1=O [CP-06-W3A] (HELM PEPTIDE1{[O=C(C[*:3])[*:2]].[dY].S.A.T.W.G.N.R.S.S.V.R.G.C.[am]}$PEPTIDE1,PEPTIDE1,1:R3-15:R3$$$V2.0) | 1200 nM | –
9 | CC(C)[C@@H]1NC(=O)[C@H](CO)NC(=O)[C@H](CO)NC(=O)[C@H](CCCNC(=N)N)NC(=O)[C@H](CC(N)=O)NC(=O)CNC(=O)[C@H](C)NC(=O)[C@H]([C@@H](C)O)NC(=O)[C@H](Cc2c[nH]c3ccccc23)NC(=O)[C@H](CO)NC(=O)[C@@H](Cc2ccc(O)cc2)NC(=O)CSC[C@@H](C(N)=O)NC(=O)CNC(=O)[C@H](CCCNC(=N)N)NC1=O [CP-06-W5A] (HELM PEPTIDE1{[O=C(C[*:3])[*:2]].[dY].S.W.T.A.G.N.R.S.S.V.R.G.C.[am]}$PEPTIDE1,PEPTIDE1,1:R3-15:R3$$$V2.0) | 207 nM | –
10 | CC(C)[C@@H]1NC(=O)[C@H](CO)NC(=O)[C@H](CO)NC(=O)[C@H](CCCNC(=N)N)NC(=O)[C@H](CC(N)=O)NC(=O)CNC(=O)[C@H](Cc2c[nH]c3ccccc23)NC(=O)[C@H]([C@@H](C)O)NC(=O)[C@H](Cc2c[nH]c3ccccc23)NC(=O)[C@H](CO)NC(=O)[C@H](C)NC(=O)CSC[C@@H](C(N)=O)NC(=O)CNC(=O)[C@H](CCCNC(=N)N)NC1=O [CP-06-d-Y1A] (HELM PEPTIDE1{[O=C(C[*:3])[*:2]].A.S.W.T.W.G.N.R.S.S.V.R.G.C.[am]}$PEPTIDE1,PEPTIDE1,1:R3-15:R3$$$V2.0) | 668 nM | Kd [2]: 676 nM; fold decrease in KD (fold loss in binding affinity) (Ala scan vs CP-06, SPR, n = 1, Figure 3b and text): ~60 fold; Fold Change (fold decrease in KD vs CP-06, Ala scan): 61
11 | C[C@@H]1NC(=O)[C@H](CO)NC(=O)[C@@H](Cc2ccc(O)cc2)NC(=O)CSC[C@@H](C(N)=O)NC(=O)[C@H](Cc2ccc(O)cc2)NC(=O)[C@H](Cc2ccc(O)cc2)NC(=O)[C@H](CCC(N)=O)NC(=O)[C@H]([C@@H](C)O)NC(=O)[C@H](CCC(N)=O)NC(=O)[C@H](CCCNC(=N)N)NC(=O)[C@H](CC(N)=O)NC(=O)CNC(=O)[C@H](Cc2c[nH]c3ccccc23)NC1=O [CP-13] (HELM PEPTIDE1{[O=C(C[*:3])[*:2]].[dY].S.A.W.G.N.R.Q.T.Q.Y.Y.C.[am]}$PEPTIDE1,PEPTIDE1,1:R3-14:R3$$$V2.0) | – | Kd (SPR, immobilized CD59, average of three technical replicates ± SEM, read-out: KD (nM) ± SEM): 10.8 ± 0.7 nM
